{
  "source": "patent US11779602B2",
  "about": "“Methods of use for CAR T cells” (ENDOCYTE, INC., priority 2018, dated 2023)",
  "key": {"HOS-FRα tumor": {"system": "HOS-FRα tumor", "assay": "CRS toxicity and sodium fluorescein rescue in HOS-FRα tumor-bearing mice", "type": "in vivo", "procedure": "All animal care and use were performed according to NIH guidelines and in compliance with protocols approved by the Purdue University Animal Use and Care Committee. Female 4 to 5-week-old NOD/SCID gamma (NSG™) mice (stock number: 005557) were purchased from The Jackson Laboratory (Bar Harbor, Me.). Unless specifically indicated, all animals were maintained on a FA-deficient diet (TestDiet, St. Louis, Mo.) upon arrival and throughout the study. To establish subcutaneous xenografts, MDA-MB-231 and HOS-FRα were implanted in the right flank region at 2.5×10^6 and 1×10^6 cells per animal, respectively. For intravenous xenografts, THP1-FRβ cells were inoculated at 5×10^6 cells per animal. Subcutaneous tumors were measured 2-3 times per week with a caliper and calculated using the ellipsoidal formula (length×width^2)/2. […] All animal doses (CAR-T cells, EC17, sodium fluorescein) were given intravenously.\nDepending on the CAR-T cell dose and how EC17 is administered, tumor-bearing mice receiving FITC-specific CAR-T cells can experience severe CRS and varying degrees of body weight loss. Therefore, a CRS grading system (0-5 scale) was developed to empirically assess CRS toxicity from animals' gross morphology and social behavior to allow for better timing of CRS rescue. While grades 0 and 5 indicated normal (no CRS) or death (due to severe CRS), respectively, grades 1, 2, and 3-4 were considered mild, light-to-moderate, and severe CRS (FIG. 57A). In addition, all EC17 doses were intentionally given towards the end of any given day to allow potential CRS symptoms to develop overnight. On the days immediately following each EC17 dose, animals were scored and rescue agents such as sodium fluorescein, folic acid and leucovorin were used to mitigate CRS toxicity. In this particular instance, a batch of E2 CAR-T cells with a high EGFRt+CD4/CD8 ratio (˜93:7) was given to HOS-FRα tumor-bearing mice at a mixture of ˜2.5 million CD8 and ˜33 million CD4 on day 0 (FIG. 57B). […]"}, "MDA-MB-231 tumors": {"system": "MDA-MB-231 tumors", "assay": "Dietary folate effect on antitumor activity and CRS, MDA-MB-231 tumors in NSG mice", "type": "in vivo", "procedure": "To study the effect of high dietary folate (FIGS. 63A-K), two sets of NSG mice were placed on either a FA-replete diet (4 mg/kg, Envigo, Indianapolis, Ind.) or a FA-deficient diet (TestDiet, St. Louis, Mo.) upon arrival. On day 0, both sets of the mice received ˜10 million of the same “clinical facsimile” CAR-T cells followed by no EC17 or EC17 SIW at 500 nmol/kg starting on day 3. On the first day of EC17 administration, MDA-MB-231 tumors size averaged around ˜549±184 mm^3 (280-918 mm^3) in FA-replete mice, and ˜559±165 mm^3 (356-961 mm^3) in FA-deficient mice.\nPreviously, it was shown that administration of FA or a FA ligand helped reduce the severity of CRS in MDA-MB-231 tumor-bearing mice. To test the long-term effect of dietary folate, mice were maintained on defined diets for ˜73 days and used when their tumors reached ˜549±184 mm^3 (280-918 mm^3) in FA-replete mice, and ˜559±165 mm^3 (356-961 mm^3) in FA-deficient mice (FIGS. 63A-K).\nSince we started MDA-MB-231 tumors at larger sizes than previous studies, tumor regression due to alloreactivity at this 10-million “clinical facsimile” CAR-T cell dose was not apparent (FIGS. 63A and 63C).\nUsing anti-human EGFR (clone Hu1) to identify MDA-MB-231 cancer cells within mouse tumor masses after an enzymatic digestion, we analyzed FRα protein expression (clone LK26) in three tumors recovered from mice on FA-replete diet that experienced a relapse despite continuing EC17 treatment. By flow cytometric detection, EGFR+ cancer cells isolated from the smallest tumor (21 mg) expressed FRα, while EGFR+ cancer cells isolated from the two larger tumors (90 mg and 363 mg) had completely lost their FRα expression (FIGS. 63I-K). Using the quantitative radioligand binding assay with ^3H-FA, the loss of functional FR levels on tissue homogenates obtained from these tumors was confirmed (˜2.1 pmol/mg binding potential versus ˜103 pmol/mg in tumors from untreated animals). Therefore, FA-deficiency may lead to enhanced activity and CRS toxicity; while non-physiological FA intake prevents CRS and continuous consumption may lead to reduced activity."}},
  "data": [
    {"smiles": "NC1=NC2N=CC(CNc3ccc(C(=O)N[C@@H](CCC(=O)NCCNC(=S)Nc4ccc(-c5c6ccc(=O)cc-6oc6cc(O)ccc56)c(C(=O)O)c4)C(=O)O)cc3)=NC2C(=O)N1", "note": "(stereo partly drawn) [EC17, FA-(γ)-ethylenediamine-FITC]", "values": [
      {"measurement": "CRS grade (0-5 scale)", "setting": "HOS-FRα tumor; day 13, after EC17 500 nmol/kg on day 12", "result": 3, "unit": "grade"},
      {"measurement": "CRS grade (0-5 scale)", "setting": "HOS-FRα tumor; days 4 and 11, after EC17 500 and 100 nmol/kg on days 3 and 10, ~35 million CAR-T cells", "result": "1-2 grade"},
      {"measurement": "CD3ε+EGFRt+ CAR-T cells in blood", "setting": "MDA-MB-231 tumors; FA-deficient diet, day 52", "result": "1.6-20.4×10^4 per 100 μL blood"},
      {"measurement": "CRS grade", "setting": "MDA-MB-231 tumors; FA-deficient diet, subsequent EC17 doses", "result": "2-3 grade"},
      {"measurement": "CD3ε+EGFRt+ CAR-T cells in blood", "setting": "MDA-MB-231 tumors; FA-replete diet, day 59", "result": "0.027-4.3×10^3 per 100 μL blood"},
      {"measurement": "CRS", "setting": "MDA-MB-231 tumors; FA-replete diet, ~10 million CAR-T cells, EC17 500 nmol/kg weekly", "result": "did not show symptoms of CRS"}
    ]}
  ]
}
